# Assay results from publication PMC11187217, “Anti-adhesive, anti-biofilm and fungicidal action of newly synthesized gemini quaternary ammonium salts” (Scientific Reports, 2024).
# Where two headings read alike, the source gives them in different places. Marks after values point to notes of the source that are not given here.
# Experiments:
# [1] = Critical micelle concentration (CMC), conductometric method; type: physicochemical; details: double distilled water, 25 °C
# Text: Alkanoyl chlorides (dodecanoyl, tetradecanoyl and hexadecanoyl) were obtained from Sigma-Aldrich. Anhydrous lactic acid (99%, crystalline) was purchased from Alfal. All solvents were obtained from Avantor Performance Materials or Stanlab and used as received. Methanol (solvent) for counterions exchange reactions was analytical grade (Avantor Performance Materials) and was additionally dried over CaH2 prior synthesis. Deuterated solvents were from Sigma-Aldrich. CMC values of surfactants were measured conductometrically in double distilled water at 25 °C.
# (§1) Elemental analysis was conducted utilizing Vario EL cube (Elementar, Germany) calibrated on acetanilide. Mass spectra were gain by electrospray ionization mass spectroscopy (ESI–MS) (micrOTOF-Q instrument; Bruker Daltonics, Germany). The ESI–MS aparatus was operated in the positive ion mode (calibrated with the Tunemix™ mixture; Bruker Daltonics; Germany), followed by spectra analysis by the DataAnalysis 3.4 software (Bruker Daltonics, Germany)—resolution of at least 5 ppm. Proton NMR and ^13C NMR measurements were performed on a Bruker AMX-500 spectrometer, utilizing CDCl3 or DMSO-d6 as a solvent. Proton and ^13C chemical shifts (given in ppm) were calibrated to TMS (δ = 0 ppm) as an internal reference. Krafft points were measured according to procedures described in our previous studies Lamch et al.,[82]. Values of CMC for all surfactants were measured utilizing the conductometric method for the compounds’ solutions in milliQ water in the same manner as described in Kula et al.. For all spectra: ^1H NMR, ^13C NMR and ESI–MS as well as appropriate comments see Electronic Supplementary Material.
# [2] = Krafft point (TK) determination; type: physicochemical
# Procedure: as §1
# [3] = system: Rhodotorula mucilaginosa ATCC 4056; test: MIC/MFC, microdilution method (modified CLSI M27); type: cell-based; details: 28 °C; for MIC / Minimum inhibitory concentration (MIC): YPG; for MIC: read-out: Minimum inhibitory concentration (MIC); for MFC: read-out: Minimum fungicidal concentration (MFC*)
# Procedure: (§2) Minimum inhibitory concentration (MIC) and minimum fungicidal concentration (MFC) values were determined based on the modified CLSI M27 protocol. The study was performed using the microdilution method on sterile 96-well titration plates. The S. cerevisiae Σ1278b ATCC 42800, S. cerevisiae BY4741 ATCC 201388, C. albicans ATCC 10231, C. albicans 595/20 and R. mucilaginosa ATCC 4056 were incubated for 18 h at 28 °C (without shaking), then centrifuged (1000 rcf, 5 min), and the obtained pellet was suspended in fresh YPG medium and optical density (OD) = 0.25–0.3 was determined at a wavelength (λ) of 590 nm. Next, 10 μl of selected compounds at appropriate final concentrations (5–1280 μM) were spotted into the wells of the titration plate. Then, 80 μl of YPG medium and 10 μl of culture with a fixed OD were added. All tests were performed in triplicate. The plate was incubated at 28 °C for 24 h. The YPG medium was a negative control, while the prepared culture not treated with compounds was a positive control. […] The minimum inhibitory concentration was determined at 90% growth inhibition.
# (§3) In order to determine the MFC of selected gemini surfactants, 10 μl of culture was transferred to solid YPG medium from the wells of the titration plate in which MIC was observed and from wells with the compound with higher concentrations. The spotted suspensions were incubated at 28 °C for 24 h. After incubation, inhibition of the growth of microorganisms was observed.
# [4] = system: Saccharomyces cerevisiae BY4741 ATCC 201388; test: MIC/MFC, microdilution method (modified CLSI M27); type: cell-based; details: for MIC: YPG, read-out: Minimum inhibitory concentration (MIC); for MIC / Minimum fungicidal concentration (MFC*): 28 °C; for MFC: read-out: Minimum fungicidal concentration (MFC*), S. cerevisiae BY4741, no growth on solid YPG, 28 °C; for Minimum fungicidal concentration (MFC*): no growth on solid YPG
# Procedure: as §2, §3
# [5] = system: C. albicans ATCC 10231 biofilm; test: Biofilm eradication (crystal violet); type: cell-based, Candida albicans; details: 24 h biofilm, 4 h exposure, concentration not given (tested 20–1280 µM)
# Procedure: The culture of C. albicans ATCC 10231 was incubated with shaking for 18 h at 37 °C, centrifuged (1000 rcf, 5 min), and the pellet was suspended in PBS (pH 7.4) until OD = 0.8. 100 µl of the obtained culture was spotted into the wells of a 96-well plate and it was incubated at 37 °C for 24 h. After incubation, the culture was removed from the wells and rinsed with sterile distilled water. Then, 100 µl of the tested gemini QAS at concentrations of 20–1280 µM were added and incubated for 4 h at 37 °C. After this time, the compounds were removed, and the plates were rinsed with sterile distilled water and placed in an oven (60 °C, 20 min) to strengthen the formed biofilm. Then 100 µl of crystal violet (0.1%) was added and stained for 5 min. The plates were rinsed with sterile distilled water until there were no traces of purple in the rinse water, and 150 µl of washing mixture (1% SDS, 50 mmol HCl, 100% isopropanol) was added. Absorbance was measured at λ = 590 nm (BioTek 800 TS Absorbance Reader). The negative control was the medium, while the positive control was the culture wells to which the tested gemini QAS had not been added. The experiment was carried out based on a modification of the method of Obłąk et al.. The tested samples were performed in 3 repetitions.
# [6] = system: S. cerevisiae Σ1278b ATCC 42800; test: Cytotoxicity, alamarBlue (resazurin) assay on yeast cells; type: cell-based, Saccharomyces cerevisiae; details: ¼ and ½ MIC
# Procedure: To determine the cytotoxicity of the tested gemini QAS on yeast cells, an experiment was performed using the alamarBlue colorimetric assay to determine the metabolic activity of cells, using the modified alamarBlue Cell Viability Assay Reagent method. Enzymes of the electron transport system reduce the blue resazurin solution to resorufin, which is fluorescent pink.
# The yeast culture S. cerevisiae Σ1278b was incubated at 28 °C for 16 h with shaking (100 rpm), centrifuged (1000 rcf, 5 min) and the optical density was obtained, OD = 1.0, λ = 590 nm. On a 96-well titration plate we spotted 160 μl of YPG medium, 20 μl of yeast culture and the tested gemini QAS at final concentrations of ½ and ¼ MIC. The negative control was YPG medium with resazurin solution, and the positive control was resazurin solution with yeast culture. The plates were incubated at 28 °C for 12 h. Then, 20 μl of resazurin solution (alamarBlue) was added to the wells and the plate was incubated for 4 h in the dark. After incubation, the absorbance was measured at λ = 570 nm and λ = 600 nm and the color change of the wells from blue to pink was observed. The experiment was performed in 3 repetitions.
# [7] = system: C. albicans ATCC 10231; test: Filamentation of Candida albicans (DIC microscopy); type: cell-based; details: 24 h incubation, ½ MIC, 37 °C
# Procedure: The culture of C. albicans ATCC 10231 was incubated in YPG medium at 28 °C for 18 h. Then the culture was centrifuged (1000 rcf, 5 min), and the resulting pellet was suspended in fresh YPG medium to obtain a culture with OD = 0.6. […] The formation of filaments was observed using a differential interference contrast microscope (Olympus BX50 DIC Microscope) after 12 and 24 h of exposure to selected surfactants on C. albicans cells. The control was a culture not exposed to gemini QAS. The experiment was performed based on a modification of the protocol of Obłąk et al. ^46.
# [8] = Rhodotorula mucilaginosa, ATCC4056, 24 h, R. mucilaginosa ATCC 4056, no growth on solid YPG
# [9] = Saccharomyces cerevisiae, ATCC201388, 24 h, S. cerevisiae BY4741, 90% growth inhibition
# [10] = Saccharomyces cerevisiae, ATCC201388, 24 h
# [11] = R. mucilaginosa ATCC 4056, 90% growth inhibition, 24 h
# [12] = R. mucilaginosa ATCC 4056, no growth on solid YPG, 24 h
# [13] = S. cerevisiae BY4741, 90% growth inhibition, 24 h
SMILES,CMC [1],TK (Krafft point) [2],"MIC ([3]; Rhodotorula mucilaginosa, ATCC4056, 24 h, R. mucilaginosa ATCC 4056, 90% growth inhibition) [µM]","MFC [3, 8] [µM]","MIC [4, 9] [µM]","MFC [4, 10] [µM]",Destruction (eradication) of formed C. albicans biofilm [5],Cytotoxic potential towards mitochondrial metabolism of S. cerevisiae Σ1278b cells [6],Effect on production of filaments by C. albicans [7],"Minimum inhibitory concentration (MIC) [3, 11]","Minimum fungicidal concentration (MFC*) [3, 12]","MIC [4, 13] [µM]","Minimum fungicidal concentration (MFC*) ([4]; S. cerevisiae BY4741, 24 h) [µM]","MIC [3, 11] [µM]",Effect on production of filaments by C. albicans ([7]; listed as Dibromides with 12-carbon hydrophobic chains),"MFC [3, 12] [µM]",Effect on production of filaments by C. albicans ([7]; listed as dibromides with 16-carbon alkyl chains)
CCCCCCCCCCCCCC(=O)N(CCCN(CCC[N+](C)(C)C)C(=O)CCCCCCCCCCCCC)CCC[N+](C)(C)C [2xC14BrG3],5.4*10^–6 mol/dm^3,< 0 °C,80,320,160,1280,approximately 80%,did not have cytotoxic potential,had little effect on the formation of filaments,–,–,–,–,–,–,–,–
"CCCCCCCCCCCCCCCC(=O)N(CCCN(CCC[N+](C)(C)C)C(=O)CCCCCCCCCCCCCCC)CCC[N+](C)(C)C [2xC16MeCO3G3, dimethyl{{3-[N-(3-{N-[3-(dimethylammonium)propyl]hexadecylamido}propyl}hexadecylamido}propyl}}ammonium dimethylcarbonate]",1.6*10^–6 mol/dm^3,~ 5 °C,–,–,–,–,approximately 80%,did not have cytotoxic potential,significantly reduced their number,640 640* µM,640 640* µM,640,1280,–,–,–,–
CCCCCCCCCCCC(=O)N(CCCN(CCC[N+](C)(C)C)C(=O)CCCCCCCCCCC)CCC[N+](C)(C)C [2xC12BrG3],6.4*10^–5 mol/dm^3,< 0 °C,–,–,–,–,approximately 80%,did not have cytotoxic potential,–,10 10* µM,10 10* µM,20,320,10,completely inhibits filament formation and cell growth,–,–
CCCCCCCCCCCCCCCC(=O)N(CCCN(CCC[N+](C)(C)C)C(=O)CCCCCCCCCCCCCCC)CCC[N+](C)(C)C [2xC16LaG3],3.7*10^–7 mol/dm^3,< 0 °C,–,–,–,–,approximately 20%,did not have cytotoxic potential,strongly prevented the formation of filaments,–,–,640,> 1280,80,–,640,–
CCCCCCCCCCCCCCCC(=O)N(CCCN(CCC[N+](C)(C)C)C(=O)CCCCCCCCCCCCCCC)CCC[N+](C)(C)C [2xC16BrG3],4.6*10^–7 mol/dm^3,~ 5 °C,–,640,320,> 1280,approximately 80%,did not have cytotoxic potential,–,> 640 640* µM,–,–,–,–,–,–,largely prevented the formation of filaments
"CCCCCCCCCCCC(=O)N(CCCN(CCC[N+](C)(C)C)C(=O)CCCCCCCCCCC)CCC[N+](C)(C)C [2xC12MeCO3G3, dimethyl{{3-[N-(3-{N-[3-(dimethylammonium)propyl]dodecylamido}propyl}dodecylamido}propyl}}ammonium dimethylcarbonate]",1.8*10^–4 mol/dm^3,< 0 °C,–,–,–,–,approximately 40%,did not have cytotoxic potential,almost completely inhibited the production of filaments,320 320* µM,320 320* µM,160,1280,–,–,–,–
